What was measured:
Type in all cases: cell-based, human
[1] = test system: Hep G2 cells; test: Cell viability study: MTT assay; settings: for viability: Hep G2, 1 μM
Procedure: The experiments detailed below involve human hepatoma cell lines Hep3B (ATCC designation HB 8064), HepG2 (ATCC designation HB 8065) and HA22T/VGH, and murine hepatoma cell line Hepa 1-6. These cells were cultured in DMEM (GIBCO, BRL) containing 10% fetal bovine serum (Hyclone), 0.01 mg/ml gentamycin and 0.1 mM non-essential amino acid. Cells were grown in a CO2 incubator at 37° C., with 5% CO2 and 95% filtered air.
Paclitaxel was dissolved in dimethylsulfoxide (DMSO) and docetaxel was dissolved in ethanol as stock solutions. The final concentration of vehicle was less than 0.1%.
Cells were cultured in a 96 well cell culture cluster (COSTAR) at a density of 4×10^4 cells/ml. After drug treatment for 24 hours or 72 hours, medium was discarded and replaced with an equal volume (100 μl) of fresh medium containing MTT (0.456 mg/ml; 3-[4,5-Dimethylthiazol-2-yl]2,5-diphenyl-tetrazolium bromide) and incubated for 1.5 hours at 37° C. The fresh medium was then discarded, and 100 μl DMSO was then added. Cell viability was determined by colorimetric comparison by reading OD values from a microplate reader (SPECTRA MAX250) at an absorption wavelength of 570 nm.
Data are the mean i standard error of mean from duplicate samples of three independent experiments.

[2] = test system: Hep G2 cells; test: Propidium iodide (PI) exclusion assay, flow cytometry
Procedure: (§1) Cells were grown on 5-cm^2 flasks (CORNING) and treated with paclitaxel and docetaxel as set out above. Propidium iodide (10 μg/ml) was then added for 15 minutes incubation at 37° C. Then, medium was collected prior to harvest of the adherent cells. Both suspended and attached cells were collected and resuspended with 500 μl PBS for flow cytometry analysis as set out below. Debris signals were removed by FSC-SSC gating.
(§2) Cells (10000) were analyzed on a Becton Dickinson FACS Calibur flow cytometer using an argon-ion laser (15 mWatt) with incident beam at 488 nm. For PI exclusion assay, red fluorescence was collected through a 585 nm filter and the cell debris signals were removed by FSC-SSC gating. Data were acquired and analyzed using FACS/CELL Quest software on a Power Macintosh 7600/120 computer. Apoptotic cells and cells at specific cycle phases were determined by ModFit LT software.
(§3) Data are mean±standard error of mean from duplicated sample of at least three independent experiments. Cells were treated with drugs for 24-72 hours, and membrane permeability was measured by flowcytometric analysis of propidium exclusion in viable hepatoma cells. Data are the percentage of cells with intact cell membrane as compared to control

[3] = test system: Hep 3B cells; test: as above
Procedure: as §1, §2, §3

[4] = test system: HA22T/VGH cells; test: as above
Procedure: as §1, §2, §3

## CC(=O)O[C@@]12CO[C@@H]1C[C@H](O)[C@@]1(C)C(=O)[C@H](O)C3=C(C)[C@@H](OC(=O)[C@H](O)[C@@H](NC(=O)OC(C)(C)C)c4ccccc4)C[C@@](O)([C@@H](OC(=O)c4ccccc4)[C@H]21)C3(C)C [Docetaxel]
[1]; 24 hours
  viability: 65.03%
[1]; 72 hours
  viability: 48.99%
[1]; Hep G2, 10 μM, maximal reduction observed at 1 μM
  viability at 10 μM compared with 1 μM: no further decrease in viability
[2]; Hep G2, 24 hrs, 0.01 μM
  percentage of cells with intact cell membrane as compared to control: 94.86 ± 1.3%
[2]; Hep G2, 24 hrs, 0.1 μM
  percentage of cells with intact cell membrane as compared to control: 85.49 ± 1.2%
[2]; Hep G2, 24 hrs, 1 μM
  percentage of cells with intact cell membrane as compared to control: 81.24 ± 3.2%
[2]; Hep G2, 72 hrs, 0.01 μM
  percentage of cells with intact cell membrane as compared to control: 61.06 ± 9.6%
[2]; Hep G2, 72 hrs, 0.1 μM
  percentage of cells with intact cell membrane as compared to control: 40.03 ± 9.0%
[2]; Hep G2, 72 hrs, 1 μM
  percentage of cells with intact cell membrane as compared to control: 27.42 ± 8.8%
[3]; 24 hrs, 0.01 μM
  percentage of cells with intact cell membrane as compared to control: 93.80 ± 10.7%
[3]; 24 hrs, 0.1 μM
  percentage of cells with intact cell membrane as compared to control: 57.41 ± 6.8%
[3]; 24 hrs, 1 μM
  percentage of cells with intact cell membrane as compared to control: 57.39 ± 4.3%
[3]; 72 hrs, 0.01 μM
  percentage of cells with intact cell membrane as compared to control: 36.81 ± 14.7%
[3]; 72 hrs, 0.1 μM
  percentage of cells with intact cell membrane as compared to control: 36.25 ± 13.5%
[3]; 72 hrs, 1 μM
  percentage of cells with intact cell membrane as compared to control: 20.25 ± 14.4%
[4]; 24 hrs, 0.01 μM
  percentage of cells with intact cell membrane as compared to control: 98.66 ± 9.0%
[4]; 24 hrs, 0.1 μM
  percentage of cells with intact cell membrane as compared to control: 38.71 ± 11.2%
[4]; 24 hrs, 1 μM
  percentage of cells with intact cell membrane as compared to control: 40.79 ± 5.0%
[4]; 72 hrs, 0.01 μM
  percentage of cells with intact cell membrane as compared to control: 55.44 ± 5.6%
[4]; 72 hrs, 0.01 μM, listed as docetaxel
  percentage of cells with intact cell membrane as compared to control: 55.44%
[4]; 72 hrs, 0.1 μM
  percentage of cells with intact cell membrane as compared to control: 21.24 ± 0.4%
[4]; 72 hrs, 1 μM
  percentage of cells with intact cell membrane as compared to control: 22.03 ± 3.1%

Source: patent US20080045584A1, “Use of Docetaxel for Treating Hepatocellular Carcinoma” (priority 1999, published 2008)
